Experimental findings from patent US12281057B2 (VERTEX PHARMACEUTICALS INCORPORATED, priority 2017, dated 2025) are described below.

SMILES strings stand for the structures.

truncated form of human NaV 1.8 with full channel activity, sequence (Q9Y5Y9 126-1722 limits assumed): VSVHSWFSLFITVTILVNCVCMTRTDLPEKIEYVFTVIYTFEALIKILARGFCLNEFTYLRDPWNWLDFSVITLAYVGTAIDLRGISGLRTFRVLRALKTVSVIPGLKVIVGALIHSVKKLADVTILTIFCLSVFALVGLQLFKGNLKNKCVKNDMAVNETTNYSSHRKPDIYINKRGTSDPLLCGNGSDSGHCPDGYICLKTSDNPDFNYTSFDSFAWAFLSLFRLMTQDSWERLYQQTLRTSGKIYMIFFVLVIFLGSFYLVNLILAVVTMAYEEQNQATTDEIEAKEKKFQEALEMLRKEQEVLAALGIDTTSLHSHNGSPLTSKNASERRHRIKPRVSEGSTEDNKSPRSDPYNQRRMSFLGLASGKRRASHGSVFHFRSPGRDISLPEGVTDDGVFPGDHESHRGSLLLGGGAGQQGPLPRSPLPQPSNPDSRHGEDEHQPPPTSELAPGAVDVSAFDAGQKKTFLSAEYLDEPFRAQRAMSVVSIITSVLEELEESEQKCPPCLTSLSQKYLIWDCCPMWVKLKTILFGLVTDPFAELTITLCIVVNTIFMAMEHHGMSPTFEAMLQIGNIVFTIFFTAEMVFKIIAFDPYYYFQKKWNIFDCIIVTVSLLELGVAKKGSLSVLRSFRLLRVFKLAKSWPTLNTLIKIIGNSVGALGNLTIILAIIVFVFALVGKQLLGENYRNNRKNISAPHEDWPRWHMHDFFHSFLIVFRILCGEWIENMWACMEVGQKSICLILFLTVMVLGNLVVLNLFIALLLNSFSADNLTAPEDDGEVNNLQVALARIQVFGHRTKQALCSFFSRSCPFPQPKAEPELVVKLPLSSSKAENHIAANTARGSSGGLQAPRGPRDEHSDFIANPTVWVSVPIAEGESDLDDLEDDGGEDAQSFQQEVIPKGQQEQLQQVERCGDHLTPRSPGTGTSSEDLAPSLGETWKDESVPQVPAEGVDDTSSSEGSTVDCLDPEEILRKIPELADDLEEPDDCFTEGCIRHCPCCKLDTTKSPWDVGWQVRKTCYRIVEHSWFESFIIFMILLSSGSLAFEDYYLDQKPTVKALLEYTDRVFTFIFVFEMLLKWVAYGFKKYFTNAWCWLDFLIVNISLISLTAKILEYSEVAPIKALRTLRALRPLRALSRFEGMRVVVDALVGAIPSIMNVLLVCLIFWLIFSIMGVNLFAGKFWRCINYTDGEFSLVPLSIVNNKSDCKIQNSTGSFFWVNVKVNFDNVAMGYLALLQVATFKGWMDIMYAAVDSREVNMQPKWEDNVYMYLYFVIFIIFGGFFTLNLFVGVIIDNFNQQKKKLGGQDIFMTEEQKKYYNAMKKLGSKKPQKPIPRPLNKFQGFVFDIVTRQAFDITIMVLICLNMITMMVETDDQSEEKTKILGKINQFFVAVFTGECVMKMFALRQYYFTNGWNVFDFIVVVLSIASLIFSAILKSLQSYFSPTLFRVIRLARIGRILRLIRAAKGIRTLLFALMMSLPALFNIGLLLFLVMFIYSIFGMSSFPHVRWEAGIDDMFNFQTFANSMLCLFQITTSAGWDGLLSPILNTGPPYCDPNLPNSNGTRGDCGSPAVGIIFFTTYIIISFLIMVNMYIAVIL

The first test has as its target truncated form of human NaV 1.8 with full channel activity (Homo sapiens, UniProt Q9Y5Y9). Nature of the test: E-VIPR Assay Method A for detecting and measuring Nav inhibition (HEK cells, membrane potential FRET dyes, electrical stimulation). The class given is cell-based. To be noted: HEK cells expressing human NaV 1.8, HS (human serum) in compound loading buffer, 11 point dose response, top dose 3 μM, Table 20, read-out: Nav 1.8 MedChem Optical Assay EVIPR Assay Method A HS IC50. In short, it runs like this: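 HEK cells expressing truncated human NaV1.8, loaded with CC2-DMPE/DiSBAC6(3) FRET dyes, incubated 30 min at room temp with compound (0.625% DMSO), then electrically stimulated (1.25 A biphasic, 10 Hz, 10 s). Inhibition from 460/580 nm ratio Rf/Ri, normalised to positive and DMSO controls.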
A word on the IC50: it is the concentration that gives 50% inhibition. As to `COc1cc(OC(F)(F)F)ccc1Oc1cc(C(F)(F)F)c(F)cc1C(=O)Nc1ccc(F)c(C(N)=O)c1` [Compound 23, N-(3-carbamoyl-4-fluoro-phenyl)-5-fluoro-2-[2-methoxy-4-(trifluoromethoxy)phenoxy]-4-(trifluoromethyl)benzamide], the IC50 is 14 nM.

The test is the same for the next values; noted with them: HEK cells expressing human NaV 1.8, HS (human serum) in compound loading buffer, 11 point dose response, top dose 3 μM, Table 20A, read-out: Nav 1.8 MedChem Optical Assay EVIPR Assay Method A HS IC50.
For the compound `Cc1cnc(C(N)=O)cc1NC(=O)c1c(Oc2ccc(OC(F)(F)F)c(F)c2)ccc(C(F)(F)F)c1F` [Compound 246, 4-[[2-fluoro-6-[3-fluoro-4-(trifluoromethoxy)phenoxy]-3-(trifluoromethyl)benzoyl]amino]-5-methyl-pyridine-2-carboxamide], the IC50 came out at 21 nM.
On to `COc1cc(OC(F)(F)F)ccc1Oc1cc2c(cc1C(=O)Nc1ccc(C(N)=O)nc1)OC(F)(F)O2` [Compound 197, 5-[[2,2-Difluoro-6-[2-methoxy-4-(trifluoromethoxy)phenoxy]-1,3-benzodioxole-5-carbonyl]amino]pyridine-2-carboxamide], for which the IC50 was 460 nM.
In the case of `COc1cc(F)ccc1Oc1cc(C(F)(F)F)cc(C(F)(F)F)c1C(=O)Nc1ccc(C(N)=O)nc1` [Compound 159, 5-[[2-(4-Fluoro-2-methoxy-phenoxy)-4,6-bis(trifluoromethyl)benzoyl]amino]pyridine-2-carboxamide], the IC50 was 1700 nM.
Still for that read-out and setting: the value for `[2H]C([2H])([2H])Oc1cc(OC(F)(F)F)ccc1Oc1ccc(C(F)(F)F)c(F)c1C(=O)Nc1ccc(C(=O)NC)nc1` [Compound 209, 5-[[2-fluoro-6-[2-(trideuteriomethoxy)-4-(trifluoromethoxy)phenoxy]-3-(trifluoromethyl)benzoyl]amino]-N-methyl-pyridine-2-carboxamide] was 50 nM; that for `[2H]C([2H])([2H])Oc1c(Oc2ccc(OC(F)(F)F)c(F)c2C(=O)Nc2ccnc(C(N)=O)c2)ccc(OC(F)(F)F)c1F` [Compound 225, 4-[[2-Fluoro-6-[3-fluoro-2-(trideuteriomethoxy)-4-(trifluoromethoxy)phenoxy]-3-(trifluoromethoxy)benzoyl]amino]pyridine-2-carboxamide] was 3 nM.
The same measure, in the same setting: for `COc1cc(OC(F)(F)F)ccc1Oc1ccc(C(F)(F)F)c(OC)c1C(=O)Nc1ccc(C(N)=O)nc1` [Compound 202, 5-[[2-Methoxy-6-[2-methoxy-4-(trifluoromethoxy)phenoxy]-3-(trifluoromethyl)benzoyl]amino]pyridine-2-carboxamide] the value was 40 nM.
Turning to `COc1cc(OC(F)(F)F)ccc1Oc1cncc(OC)c1C(=O)Nc1ccc(F)c(C(N)=O)c1` [Compound 138, N-(3-Carbamoyl-4-fluoro-phenyl)-3-methoxy-5-[2-methoxy-4-(trifluoromethoxy)phenoxy]pyridine-4-carboxamide], the IC50 came to 1400 nM.
Still for that read-out and setting: for `COc1c(C(F)(F)F)ccc(Oc2ccc(OC(F)(F)F)cc2)c1C(=O)Nc1ccc(C(N)=O)c(F)c1` [Compound 132, N-(4-Carbamoyl-3-fluoro-phenyl)-2-methoxy-6-[4-(trifluoromethoxy)phenoxy]-3-(trifluoromethyl)benzamide] the value was 140 nM; for `[2H]C([2H])([2H])c1c(Oc2ccc(C(F)(F)F)c(F)c2C(=O)Nc2ccnc(C(N)=O)c2)ccc(OC(F)(F)F)c1F` [Compound 232, 4-[[2-Fluoro-6-[3-fluoro-2-(trideuteriomethyl)-4-(trifluoromethoxy)phenoxy]-3-(trifluoromethyl)benzoyl]amino]pyridine-2-carboxamide], 17 nM.
Still for that read-out and setting: the value for `COc1cc(OC(F)(F)F)ccc1Oc1cc(C(F)(F)F)ncc1C(=O)Nc1ccc(C)c(C(N)=O)c1` [Compound 238, N-(3-carbamoyl-4-methyl-phenyl)-4-[2-methoxy-4-(trifluoromethoxy)phenoxy]-6-(trifluoromethyl)pyridine-3-carboxamide] was 400 nM; that for `COc1cc(F)ccc1Oc1cc(Cl)cc(Cl)c1C(=O)Nc1ccnc(C(N)=O)c1` [Compound 178, 4-[[2,4-Dichloro-6-(4-fluoro-2-methoxy-phenoxy)benzoyl]amino]pyridine-2-carboxamide] was 76 nM; that for `NC(=O)c1cc(NC(=O)c2c(Oc3ccc(OC(F)(F)F)cc3)ccc(C(F)(F)F)c2F)cc[n+]1[O-]` [Compound 110, 4-[[2-Fluoro-6-[4-(trifluoromethoxy)phenoxy]-3-(trifluoromethyl)benzoyl]amino]-1-oxido-pyridin-1-ium-2-carboxamide] was 55 nM.
Same read-out and setting: for `CNC(=O)c1cc(NC(=O)c2cnc(C(F)(F)F)cc2Oc2ccc(OC(F)(F)F)cc2OC)cc(C)n1` [Compound 265, 4-[[4-[2-methoxy-4-(trifluoromethoxy)phenoxy]-6-(trifluoromethyl)pyridine-3-carbonyl]amino]-N,6-dimethyl-pyridine-2-carboxamide] the value was 1450 nM.
Take `COc1cc(OC(F)(F)F)ccc1Oc1cc(C(F)(F)F)c(F)cc1C(=O)Nc1ccnc(C(N)=O)c1` [Compound 75, 4-[[5-Fluoro-2-[2-methoxy-4-(trifluoromethoxy)phenoxy]-4-(trifluoromethyl)benzoyl]amino]pyridine-2-carboxamide]: the IC50 was 26 nM.
Still for that read-out and setting: the value for `[2H]C([2H])([2H])Oc1cc(OC(F)(F)F)ccc1Oc1ccc(C(F)(F)F)c(F)c1C(=O)Nc1ccc(C)c(C(N)=O)c1` [Compound 145, N-(3-carbamoyl-4-methyl-phenyl)-2-fluoro-6-[2-(trideuteriomethoxy)-4-(trifluoromethoxy)phenoxy]-3-(trifluoromethyl)benzamide] was 9 nM; that for `COc1cc(OC(F)(F)F)ccc1Oc1cc(Cl)c(C)c(F)c1C(=O)Nc1cc(C(N)=O)ncc1C` [Compound 211, 4-[[4-Chloro-2-fluoro-6-[2-methoxy-4-(trifluoromethoxy)phenoxy]-3-methyl-benzoyl]amino]-5-methyl-pyridine-2-carboxamide] was 6 nM; that for `COc1cc(OC(F)(F)F)ccc1Oc1cc(C(F)(F)F)ncc1C(=O)Nc1ccc(F)c(C(N)=O)c1` [Compound 30, N-(3-Carbamoyl-4-fluoro-phenyl)-4-[2-methoxy-4-(trifluoromethoxy)phenoxy]-6-(trifluoromethyl)pyridine-3-carboxamide] was 20 nM.
As to `COc1cc(OC(F)(F)F)ccc1Oc1ccc(C(F)(F)F)c(OC)c1C(=O)Nc1ccc(F)c(C(N)=O)c1` [Compound 92, N-(3-Carbamoyl-4-fluoro-phenyl)-2-methoxy-6-[2-methoxy-4-(trifluoromethoxy)phenoxy]-3-(trifluoromethyl)benzamide], the IC50 is 2 nM.
The same measure, in the same setting: for `NC(=O)c1ccc(NC(=O)c2c(Cl)cc(Cl)cc2Oc2ccc(OC(F)(F)F)cc2)cn1` [Compound 184, 5-[[2,4-Dichloro-6-[4-(trifluoromethoxy)phenoxy]benzoyl]amino]pyridine-2-carboxamide] the value was 500 nM; for `[2H]C([2H])([2H])Oc1cc(OC(F)(F)F)ccc1Oc1cc(Cl)cc(Cl)c1C(=O)Nc1ccc(C(N)=O)nc1` [Compound 183, 5-[[2,4-Dichloro-6-[2-(trideuteriomethoxy)-4-(trifluoromethoxy)phenoxy]benzoyl]amino]pyridine-2-carboxamide], 99 nM.
On the same count and under the same terms, the value for `COc1cc(OC(F)(F)F)ccc1Oc1cc(C(F)(F)F)cc(F)c1C(=O)Nc1ccnc(C(N)=O)c1` [Compound 163, 4-[[2-Fluoro-6-[2-methoxy-4-(trifluoromethoxy)phenoxy]-4-(trifluoromethyl)benzoyl]amino]pyridine-2-carboxamide] was 11 nM.
On the same count and under the same terms, the value for `[2H]C([2H])([2H])Oc1c(Oc2ccc(Cl)c(F)c2C(=O)Nc2ccnc(C(N)=O)c2)ccc(OC(F)(F)F)c1F` [Compound 220, 4-[[3-Chloro-2-fluoro-6-[3-fluoro-2-(trideuteriomethoxy)-4-(trifluoromethoxy)phenoxy]benzoyl]amino]pyridine-2-carboxamide] was 5 nM.
In the case of `NC(=O)c1cc(NC(=O)c2c(Oc3ccc(OC(F)(F)F)cc3Cl)ccc(C(F)(F)F)c2F)ccn1` [Compound 51], the IC50 worked out at 9 nM.
Turning to `[2H]C([2H])([2H])Oc1c(Oc2ccc(C(F)(F)F)c(F)c2C(=O)Nc2ccnc(C(=O)NC)c2)ccc(OC(F)(F)F)c1F` [Compound 228, 4-[[2-Fluoro-6-[3-fluoro-2-(trideuteriomethoxy)-4-(trifluoromethoxy)phenoxy]-3-(trifluoromethyl)benzoyl]amino]-N-methyl-pyridine-2-carboxamide], the IC50 stood at 7 nM.
Turning to `COc1cc(OC(F)(F)F)ccc1Oc1ccc(C(F)(F)F)c(F)c1C(=O)Nc1cccc(C(=O)N(C)C)c1` [Compound 96, N-[3-(dimethylcarbamoyl)phenyl]-2-fluoro-6-[2-methoxy-4-(trifluoromethoxy)phenoxy]-3-(trifluoromethyl)benzamide], the concentration for half-maximal inhibition (IC50) turned out to be 54 nM.
As for `N#Cc1cc(F)ccc1Oc1ccc(C(F)(F)F)c(F)c1C(=O)Nc1ccc(F)c(C(N)=O)c1` [Compound 295, N-(3-carbamoyl-4-fluoro-phenyl)-6-(2-cyano-4-fluoro-phenoxy)-2-fluoro-3-(trifluoromethyl)benzamide], the IC50 amounted to 200 nM.
Regarding `COc1cc(OC(F)(F)F)ccc1Oc1cc(C2C[C@@H]2C)ncc1C(=O)Nc1ccnc(C(N)=O)c1` (mixture of isomers) [Compound 109, Racemic trans-4-(4-(2-Methoxy-4-(trifluoromethoxy)phenoxy)-6-(2-methylcyclopropyl)nicotinamido)picolinamide], the 50% inhibitory concentration (IC50) was found to be 65 nM.
In the case of `[2H]C([2H])([2H])Oc1c(Oc2ccc(C(F)(F)F)c(F)c2C(=O)Nc2cc(C(N)=O)ncc2C)ccc(OC(F)(F)F)c1F` [Compound 227, 4-[[2-Fluoro-6-[3-fluoro-2-(trideuteriomethoxy)-4-(trifluoromethoxy)phenoxy]-3-(trifluoromethyl)benzoyl]amino]-5-methyl-pyridine-2-carboxamide], the IC50 stood at 2 nM.
